From patent US9938273B2 (Plexxikon Inc., priority 2015, dated 2018) come the findings set out here.

SMILES strings stand for the structures.

Test [1] deals with MOLM-14 D835Y cells, FLT3 ITD and FLT3 D835Y. Kind of test: Cell proliferation assay (CellTiter-Glo), MOLM-14 D835Y. Format: cell-based. The note with it: Homo sapiens, 72 h, 3d-Growth, GMean. In short, it runs like this:
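MOLM-14 AML cells (endogenous FLT3 ITD, AC220-selected D835Y or F691L variants) or murine Ba/F3 expressing full-length FLT3 ITD/D835Y, without IL-3 for FLT3 dependence, 1×10^4 cells/well. Eight-point 1:3 series from 1 μM final, 0.2% DMSO, 3 days at 37 °C. CellTiter-Glo luminescence (ATP) gave IC50.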
A general note: Cellular ATP, detected with luciferase, serves as a proxy for viable cell number.

Test [2] deals with MOLM-14 F691L cells, FLT3 ITD and FLT3 F691L. Kind of test: Cell proliferation assay (CellTiter-Glo), MOLM-14 F691L. To be noted: Homo sapiens, 72 h, 3d-Growth, GMean. Type of test: cell-based. An excerpt:
The FLT3 inhibitors may be assessed using the MOLM-14, Acute Myeloid Leukemia cell line that endogenously expresses FLT3 ITD or derivatives of the human FLT3 AML cell line which acquired the D835Y (activation loop) of F691L (gatekeeper) mutation after selection in escalating doses of the FLT3 Inhibitor AC220. FLT3 inhibitors may also be assessed using cells that are engineered to express mutant FLT3. For engineered cells, murine Ba/F3 cells were transfected with full-length FLT3 ITD/D835Y mutations. The parental BA/F3 cells are dependent upon Interleukin-3 (IL-3) for survival, and introduction of the FLT3 constructs rendered these cells dependent upon FLT3 kinase activity when cultured in the absences of IL-3. Engineered BA/F3 cell growth assays can be performed in either the […] of IL-3, to assess the compound inhibition of FLT3 or to detect the presence of off-target activity, respectively. Inhibitors of FLT3 kinase activity reduce or eliminate the FLT3 oncogenic signaling, resulting in reduced cell proliferation. This inhibition is measured as a function of compound concentration to asses IC50 values.
Cell lines used in proliferation assays are as follows in Table 3:
Cells were seeded at 1×10^4 cells per well of a 96 well cell culture plate in 50 μl of cell culture medium. Compounds were dissolved in DMSO, typically at a concentration of 0.5 mM and were serially diluted 1:3 for a total of eight points and added to the cells to final concentrations of […], 0.0041, 0.0014 and 0.00046 μM in 100 μl cell culture medium (final concentration 0.2% DMSO). […] The cells were incubated at 37° C., 5% CO2 for three days. CellTiter-Glo Buffer (Promega Cell Viability Assay catalog #G7573) and substrate were equilibrated to room temperature, and enzyme/substrate Recombinant Firefly Luciferase/Beetle Luciferin was reconstituted. The cell plates were equilibrated to room temperature for 30 minutes, then lysed by addition of an equivalent volume of the Celltiter-Glo Reagent. The plate was mixed for 10 minutes on a plate shaker to lyse the cells. The plates were read on a Tecan M1000 using Luminescence protocol modified to read 0.1 s per well. The luminescence reading assesses the ATP content, which correlates directly with cell number such that the reading as a function of compound concentration was used to determine the IC50 value.

Take `CC(C)(C#N)CNC(=O)c1cccc(-c2cnc3[nH]c(-c4cnn(C(F)F)c4)cc3c2)n1` [Compound P-0153, N-(2-cyano-2-methyl-propyl)-6-[2-[1-(difluoromethyl)pyrazol-4-yl]-1H-pyrrolo[2,3-b]pyridin-5-yl]pyridine-2-carboxamide]: the IC50 in test [1] and in test [2] was 0.0001 to 10 µM throughout.
Consider `O=C(c1cccc(-c2cnc3[nH]c(-c4cnn(CC(F)(F)F)c4)cc3c2)n1)N1CCC(F)(F)C1` [Compound P-0112, (3,3-difluoropyrrolidin-1-yl)-[6-[2-[1-(2,2,2-trifluoroethyl)pyrazol-4-yl]-1H-pyrrolo[2,3-b]pyridin-5-yl]-2-pyridyl]methanone], for which the IC50 in test [1] and in test [2] was 0.0001 to 10 µM throughout.
With `N#CC1(CNC(=O)c2cccc(-c3cnc4[nH]c(-c5ccccc5)cc4c3)n2)CC1` [Compound P-0137, N-[(1-cyanocyclopropyl)methyl]-6-(2-phenyl-1H-pyrrolo[2,3-b]pyridin-5-yl)pyridine-2-carboxamide], the IC50 in test [1] and in test [2] was 0.0001 to 10 µM in each case.
Take `CC(C)(C#N)NC(=O)c1cccc(-c2cnc3[nH]c(-c4cnn(C5CCNCC5)c4)cc3c2)n1` [Compound P-0187, N-(1-cyano-1-methyl-ethyl)-6-[2-[1-(4-piperidyl)pyrazol-4-yl]-1H-pyrrolo[2,3-b]pyridin-5-yl]pyridine-2-carboxamide]: the IC50 in test [1] and in test [2] was 0.0001 to 10 µM each time.
In the case of `CC(C)(C#N)NC(=O)c1cccc(-c2cnc3[nH]c(-c4cnn(CCC#N)c4)cc3c2)n1` [Compound P-0170, 6-[2-[1-(2-cyanoethyl)pyrazol-4-yl]-1H-pyrrolo[2,3-b]pyridin-5-yl]-N-(1-cyano-1-methyl-ethyl)pyridine-2-carboxamide], the IC50 in test [1] and in test [2] was 0.0001 to 10 µM in each case.
With `CC(C)(C#N)NC(=O)c1cccc(-c2cnc3[nH]c(-c4cnn(C5CC5)c4)cc3c2)n1` [Compound P-0165, N-(1-cyano-1-methyl-ethyl)-6-[2-(1-cyclopropylpyrazol-4-yl)-1H-pyrrolo[2,3-b]pyridin-5-yl]pyridine-2-carboxamide], the IC50 in test [1] and in test [2] was 0.0001 to 10 µM in each case.
For `CC(C)(O)CNC(=O)c1cccc(-c2cnc3[nH]c(-c4ccccc4)cc3c2)n1` [Compound P-0150, N-(2-hydroxy-2-methyl-propyl)-6-(2-phenyl-1H-pyrrolo[2,3-b]pyridin-5-yl)pyridine-2-carboxamide], the IC50 in test [1] and in test [2] was 0.0001 to 10 µM throughout.
`Cc1nn(C(C)C)cc1-c1cc2cc(-c3cccc(C(=O)NC(C)(C)C#N)n3)cnc2[nH]1` [Compound P-0178, N-(1-cyano-1-methyl-ethyl)-6-[2-(1-isopropyl-3-methyl-pyrazol-4-yl)-1H-pyrrolo[2,3-b]pyridin-5-yl]pyridine-2-carboxamide]: the IC50 in test [1] and in test [2] was 0.0001 to 10 µM each time.
On to `CC(C)(C#N)NC(=O)c1cccc(-c2cnc3[nH]c(-c4cn[nH]c4)cc3c2)n1` [Compound P-0183, N-(1-cyano-1-methyl-ethyl)-6-[2-(1H-pyrazol-4-yl)-1H-pyrrolo[2,3-b]pyridin-5-yl]pyridine-2-carboxamide], for which the IC50 in test [1] and in test [2] was 0.0001 to 10 µM in each case.
For `N#CCCNC(=O)c1cccc(-c2cnc3[nH]c(-c4ccccc4)c(Br)c3c2)n1` [Compound P-0147, 6-(3-bromo-2-phenyl-1H-pyrrolo[2,3-b]pyridin-5-yl)-N-(2-cyanoethyl)pyridine-2-carboxamide], the half-inhibitory concentration (IC50) in test [1] and in test [2] was 0.0001 to 10 µM throughout.
Turning to `CC(C)(C#N)CNC(=O)c1cccc(-c2cnc3[nH]c(C4=CCN(C(=O)C5CC5)CC4)cc3c2)n1` [Compound P-0162, N-(2-cyano-2-methyl-propyl)-6-[2-[1-(cyclopropanecarbonyl)-3,6-dihydro-2H-pyridin-4-yl]-1H-pyrrolo[2,3-b]pyridin-5-yl]pyridine-2-carboxamide], the IC50 in test [1] and in test [2] was 0.0001 to 10 µM each time.
`CC(C)(C#N)CNC(=O)c1cccc(-c2cnc3[nH]c(C4=CCC(F)(F)CC4)cc3c2)n1` [Compound P-0157, N-(2-cyano-2-methyl-propyl)-6-[2-(4,4-difluorocyclohexen-1-yl)-1H-pyrrolo[2,3-b]pyridin-5-yl]pyridine-2-carboxamide]: the IC50 in test [1] and in test [2] was 0.0001 to 10 µM throughout.
Take `N#CC1(F)CCN(C(=O)c2cccc(-c3cnc4[nH]c(-c5ccccc5)cc4c3)n2)C1` (stereo not shown) [Compound P-0115, 3-fluoro-1-[6-(2-phenyl-1H-pyrrolo[2,3-b]pyridin-5-yl)pyridine-2-carbonyl]pyrrolidine-3-carbonitrile]: the IC50 in test [1] and in test [2] was 0.0001 to 10 µM each time.
Turning to `CC(C)(C#N)CNC(=O)c1cccc(-c2cnc3[nH]c(C4=CC[S+]([O-])CC4)cc3c2)n1` (stereo not shown) [Compound P-0161, N-(2-cyano-2-methyl-propyl)-6-[2-(1-oxo-3,6-dihydro-2H-thiopyran-4-yl)-1H-pyrrolo[2,3-b]pyridin-5-yl]pyridine-2-carboxamide], the IC50 in test [1] and in test [2] was 0.0001 to 10 µM throughout.
As for `O=S(=O)(NC1CC1)c1cccc(-c2cnc3[nH]c(-c4ccccc4)cc3c2)n1` [Compound P-0109, N-cyclopropyl-6-(2-phenyl-1H-pyrrolo[2,3-b]pyridin-5-yl)pyridine-2-sulfonamide], the IC50 in test [1] and in test [2] was 0.0001 to 10 µM in each case.
In the case of `CC(C)(C#N)NC(=O)c1cccc(-c2cnc3[nH]c(-c4cnn(CCN5CCOCC5)c4)cc3c2)n1` [Compound P-0174, N-(1-cyano-1-methyl-ethyl)-6-[2-[1-(2-morpholinoethyl)pyrazol-4-yl]-1H-pyrrolo[2,3-b]pyridin-5-yl]pyridine-2-carboxamide], the IC50 in test [1] and in test [2] was 0.0001 to 10 µM each time.
Turning to `N#CC1(NC(=O)c2cccc(-c3cnc4[nH]c(-c5ccccc5)cc4c3)n2)CC1` [Compound P-0111, N-(1-cyanocyclopropyl)-6-(2-phenyl-1H-pyrrolo[2.3-b]pyridin-5-yl]pyridine-2-carboxamide], the half-inhibitory concentration (IC50) in test [1] and in test [2] was 0.0001 to 10 µM throughout.
In the case of `CC(C)(C#N)CNC(=O)c1cccc(-c2cnc3[nH]c(-c4ccc(F)cc4)cc3c2)n1` [Compound P-0144, N-(2-cyano-2-methyl-propyl)-6-[2-(4-fluorophenyl)-1H-pyrrolo[2,3-b]pyridin-5-yl]pyridine-2-carboxamide], the IC50 in test [1] and in test [2] was 0.0001 to 10 µM in each case.
Turning to `CC(C)(C)NC(=O)c1cccc(-c2cnc3[nH]c(-c4ccccc4)cc3c2)n1` [Compound P-0140, N-tert-butyl-6-(2-phenyl-1H-pyrrolo[2,3-b]pyridin-5-yl)pyridine-2-carboxamide], the IC50 in test [1] and in test [2] was 0.0001 to 10 µM throughout.
`N#CC1(NC(=O)c2cccc(-c3cnc4[nH]c(-c5ccccc5)c(Cl)c4c3)n2)CC1` [Compound P-0139, 6-(3-chloro-2-phenyl-1H-pyrrolo[2,3-b]pyridin-5-yl)-N-(1-cyanocyclopropyl)pyridine-2-carboxamide]: the IC50 (commonly the concentration needed to halve the response being measured) in test [1] was 0.0001 to 10 µM.
On the same count and under the same terms, then `CC(C)(C#N)NC(=O)c1cccc(-c2cnc3[nH]c(-c4ccc(C5CC5)cc4)cc3c2)n1` [Compound P-0189, N-(1-cyano-1-methyl-ethyl)-6-[2-(4-cyclopropylphenyl)-1H-pyrrolo[2,3-b]pyridin-5-yl]pyridine-2-carboxamide], with 0.0001 to 10 µM.
As for `COc1cc(-c2cc3cc(-c4cccc(C(=O)NCC(C)(C)C#N)n4)cnc3[nH]2)ccn1` [Compound P-0154, N-(2-cyano-2-methyl-propyl)-6-[2-(2-methoxy-4-pyridyl)-1H-pyrrolo[2,3-b]pyridin-5-yl]pyridine-2-carboxamide], in test [1], the IC50 lay within 0.0001 to 10 µM.
Still for that read-out and setting: the figure for `CC(C)(C#N)CNC(=O)c1cccc(-c2cnc3[nH]c(C4=CCSCC4)cc3c2)n1` [Compound P-0159, N-(2-cyano-2-methyl-propyl)-6-[2-(3,6-dihydro-2H-thiopyran-4-yl)-1H-pyrrolo[2,3-b]pyridin-5-yl]pyridine-2-carboxamide] is 0.0001 to 10 µM; for `N#CCCNC(=O)c1cccc(-c2cnc3[nH]c(-c4ccccc4)c(I)c3c2)n1` [Compound P-0143, N-(2-cyanoethyl)-6-(3-iodo-2-phenyl-1H-pyrrolo[2,3-b]pyridin-5-yl)pyridine-2-carboxamide] it is 0.0001 to 10 µM.
